# From US9499823B2, “Constructs expressing chimeric receptors and use thereof for the controlled activation of defence response to pathogens in plants” (priority 2009, dated 2016)
# “Also recorded” adds a separate entry of the source.
# Assays:
# [1] = system: agroinfiltrated leaves of the Arabidopsis bak1-4 mutant; test: Receptor internalization in agroinfiltrated leaves of the Arabidopsis bak1-4 mutant; assay type: cell-based, Arabidopsis thaliana; conditions: 10 μM flg22, 30 min
# Protocol: D) Relative variation of fluorescence in agroinfiltrated leaves of the Arabidopsis bak1-4 mutant expressing the indicated receptors and treated for 30 min with 10 μM flg22. Each value was normalised against fluorescence measured after 10 min of stimulation.
# The GFP-dependent fluorescence was monitored from 2 to 4 days post infection in cells of the lower epidermis. Pieces of leaf were randomly cut from the infected area and mounted in water or supplemented with elicitors for microscopic observations. Flg22 and elfl8 were used at 10 μM while oligosaccharides were used at 100 μg/mL. Materials were analyzed using a Leica DM IRE epifluorescence microscope equipped with a digital cooled camera (DFC350FX R2; Leica). GFP fluorescence was excited with a 488-nm laser line, and emitted fluorescence was collected at 543-nm. The Leica Confocal Software and Adobe Photoshop 5.0 were used for post-acquisition image processing. All samples were imaged with the 40× or 100× oil objectives. Pictures were taken in Kahlman frame giving an average of 16 scans for the dynamics of internalization and 4 scans for the cellular localizations.
# The authors also tested whether the presence of the LRR-RLK BAK1 (Nam & Li 2002), a protein required for flg22 and elfl8 signalling (Chinchilla et al., 2007), is also required for the internalization of eJMC induced by flg22.
# [2] = system: Arabidopsis ecotype Wassilewskija (Ws-0) leaves; test: H2O2 accumulation (DAB staining) and callose deposition (aniline blue) in stably transformed Arabidopsis Ws-0; assay type: cell-based, Arabidopsis thaliana; conditions: flg22 1 μM, 1 h, stably transformed Ws-0 plants
# Protocol: A) Histochemical analysis of defense responses upon 1 h of treatment with H2O, flg22 (1 μM) or elfl8 (10 μM).
# (§1) 3,3′-diaminobenzidine (DAB) staining, callose deposition and gene resistance analysis were assayed as described (Galletti et al., 2008). For measuring active oxygen species released by tobacco agroinfiltrated plants after elicitor treatment, the authors used a modified luminol-dependent assay (Gomez et al., 1999). Slices, corresponding to approximately 30 mg fresh weight, were transferred to assay tubes containing 1 μM flg22 or 10 μM elfl8 in aqueous solution supplied with 40 μM luminol (SIGMA). Chemo-luminescence was measured in a liquid scintillation counter (LS-6500, Beckman) after 5 and 15 min upon addition of elicitors.
# Fluorescent eJMC and FLS2 were also stably expressed in transgenic Arabidopsis ecotype Wassilewskija (Ws-0), which carries EFR but lacks a flg22 perception system (Gomez-Gomez et al., 1999, Bauer et al., 2001). Transformed T1 plants expressing the proteins, named eJMC plants and FLS2 plants, respectively, were selected by confocal microscopy analysis of adult rosette leaves. […] Fluorescence was detected only in adult rosette leaves, likely due to a low expression level of the receptor at the different developmental stages.
# [3] = system: B. cinerea; test: Lesion development in Arabidopsis plants inoculated with B. cinerea; assay type: in vivo; conditions: transgenic Arabidopsis vs Col-0 or Col-0 efr, 48 h post-inoculation
# Protocol: (A) Growth of A. tumefaciens in N. tabacum tissues transiently expressing receptor proteins. Tobacco leaves were infiltrated with Agrobacterium carrying the indicated receptor constructs and the number of Agrobacterium colony-forming units (c.f.u.) in the tissues was analyzed immediately after infiltration (white bars) and after 24 h (gray bars). EFR and eJMC were used as positive and negative controls, respectively. For each receptor, three samples were analyzed in five independent experiments. Asterisks indicate statistically significant differences against control (Col-0 for WAK1 plants and Col-0 efr for WEG and EWAK plants). (B) Lesion development in Arabidopsis wild type (Col-0) and mutant Col-0 efr plants and in transgenic plants expressing WAK1, WEG and EWAK plants inoculated with B. cinerea at 48 h post-inoculation. Values are means±s.e.m. of at least 16 lesions. The same experiment was performed in a second independent transgenic line expressing WAK1 with similar results. Asterisks indicate statistically significant differences against control (Col-0 for WAK1 plants and Col-0 efr for WEG and EWAK plants).
# [4] = system: At3g22270 and At4g37640 transcripts; test: Elicitor-induced At3g22270 and At4g37640 expression, semi-quantitative PCR, Arabidopsis Col-0 / Col-0 efr; assay type: cell-based, Arabidopsis thaliana; conditions: transgenic Col-0 efr plants
# Protocol: (A) Induction of ethylene biosynthesis in agroinfiltrated tobacco explants expressing EFR, WAK1, WEG and EWAK. […] Agroinfiltrated leaf tissues expressing EFR or WEG and elicited with OGs or elfl8 respectively, represented our negative control. Values are means±s.e.m. (N=3). (B) Elicitor-induced gene expression in untransformed Col-0 and Col-0 efr plants, and in transgenic Arabidopsis Col-0 efr plants stably expressing WEG. Accumulation of At3g22270 and At4g37640 transcripts was analysed by semi-quantitative PCR, using the UBQ5 gene for normalization. Adult leaves were syringe-infiltrated with water, OGs (25 μg/ml) or elfl8 (10 μM) for 3 h. The experiment was repeated three times with similar results. The same experiment was performed in a second independent transgenic line expressing WEG with similar results.
# The ability of WEG to activate downstream responses upon stimulation with OGs was analysed in agroinfiltrated tobacco.
# [5] = system: transgenic Arabidopsis leaves; test: Constitutive activation of defense responses (H2O2, callose) in transgenic plants; assay type: cell-based, Arabidopsis thaliana; conditions: no elicitor
# Protocol: Leaves were stained with 3,3′-diaminobenzidine (DAB) for H2O2 visualization (upper panel) and with aniline blue for callose visualization (lower panel).
# as §1
# [6] = system: Pectobacterium carotovorum subsp. carotovorum; test: Infection assay with Pectobacterium carotovorum on transgenic Arabidopsis leaves; assay type: in vivo; conditions: transgenic Arabidopsis vs Col-0 or Col-0 efr, 24 h, 5×10^7 CFU/ml
# Protocol: Inoculum concentration was 5×10^7 CFU/ml). Values are means±SE of at least 16 lesions. Asterisks indicate statistically significant differences against control plants (Col-0 or Col-0 efr), according to Student's t test (*, p<0.0005).
# Agrobacterium tumefaciens GV3101 strain infections was performed as described in Katagiri et al., (2002) and using a concentration of Agrobacterium corresponding at an OD600 of 1.0 in 10 mM MgCl2 and 600 μM acetosyringone. After 24 h of infiltration, serial dilution of Agrobacterium colonies were deposited on LB agar supplemented with gentamycin and rifampicin and grown for 2-3 days at 28° C. in the dark. At least 5 independent plants and 3 different leaves by plant, were used per experiment. Pectobacterium carotovorum subsp. carotovorum infections Pectobacterium carotovorum subsp. carotovorum (formely Erwinia carotovora; Gardan et al., 2003) (strain DMSZ 30169) was obtained from DSMZ GmbH (Germany). A liquid colture using 10 ml LB medium was prepared. […]
# For infection, fully developed leaves of 4 week old Arabidopsis plants were detached and placed in 0.8% agar Petri dishes. […] Symptoms were scored measuring the area of macerated tissue after 24 hour post inoculation at 22° C. and 12 h photoperiod. Area was measured by ImageJ software. […]
Molecule,internalization induced by flg22 in the bak1-4 mutant [1],H2O2 production induced by flg22 [2],callose deposition induced by flg22 [2],resistance to B. cinerea infection [3],induction of At3g22270 and At4g37640 by other elicitors ([4]; 3 h),"induction of At3g22270 and At4g37640 by OGs ([4]; OGs 25 μg/ml, 3 h)",constitutive activation of At3g22270 and At4g37640 expression ([4]; water controls),"constitutive activation of defense responses (H2O2 levels, callose deposits) [5]",resistance to Pectobacterium carotovorum subsp. carotovorum [6]
FLS2 [reference compound],nearly abolished,induced,induced,–,–,–,–,–,–
"eJMC: chimera (Arg806FLS2-Val650EFR): LRR and eJM domains of FLS2 fused upstream of TM, iJM and kinase domains of EFR, GFP-fused",not affected,induced,induced,–,–,–,–,–,–
"WEG: chimeric receptor: WAK1 ectodomain fused to the TM-iJM-kinase portion of EFR, GFP-fused (protein, left off: large carriers) QHQPGENCQNKCGNITIEYPFGISSGCYYPGNESFSITCKEDRPHVLSDIEVANFNHSGQLQVLLNRSSTCYDEQGKKTEEDSSFTLENLSLSANNKLTAVGCNALSLLDTFGMQNYSTACLSLCDSPPEADGECNGRGCCRVDVSAPLDSYTFETTSGRIKHMTSFHDFSPCTYAFLVEDDKFNFSSTEDLLNLRNVMRFPVLLDWSVGNQTCEQVGSTSICGGNSTCLDSTPRNGYICRCNEGFDGNPYLSAGCQDVNECTTSSTIHRHNCSDPKTCRNKVGGFYCKCQSGYRLDTTTMSCKRKEVVSGICIGIASLLLIIIVASLCWFMKRKKKNNASDGNPSDSTTLGMFHEKVSYEELHSATSRFSSTNLIGSGNFGNVFKGLLGPENKLVAVKVLNLLKHGATKSFMAECETFKGIRHRNLVKLITVCSSLDSEGNDFRALVYEFMPKGSLDMWLQLEDLERVNDHSRSLTPAEKLNIAIDVASALEYLHVHCHDPVAHCDIKPSNILLDDDLTAHVSDFGLAQLLYKYDRESFLNQFSSAGVRGTIGYAAPEYGMGGQPSIQGDVYSFGILLLEMFSGKKPTDESFAGDYNLHSYTKSILSGCTSSGGSNAIDEGLRLVLQVGIKCSEEYPRDRMRTDEAVRELISIRSKFFSSKTTITESPRDAPQSSPQEWMLNTDMHTM",–,–,–,increased resistance; also recorded: confers resistance,not by other elicitors,induced by OGs,No constitutive activation,do not show constitutive activation of defense responses,increased resistance; also recorded: confers resistance
